pIC50: −log10 of the molar value.
Biological target: SUMO-specific protease 1 (SENP1) (Homo sapiens, UniProt Q9P0U3)
Sequence (Q9P0U3 419-644 limits assumed): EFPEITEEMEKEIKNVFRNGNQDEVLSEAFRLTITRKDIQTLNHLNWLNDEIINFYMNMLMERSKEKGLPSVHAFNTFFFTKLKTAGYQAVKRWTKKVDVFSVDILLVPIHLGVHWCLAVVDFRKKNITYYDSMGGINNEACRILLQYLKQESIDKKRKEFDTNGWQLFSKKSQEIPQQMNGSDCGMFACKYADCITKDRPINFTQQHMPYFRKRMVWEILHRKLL

pIC50: 4.81
SMILES: CC1(C)CC[C@]2(C(=O)O)CC[C@]3(C)C(=CC[C@@H]4[C@@]5(C)CC[C@H](O[C@@H]6O[C@H](C(=O)O)[C@@H](O)[C@H](O[C@@H]7OC[C@@H](O)[C@H](O)[C@H]7O)[C@H]6O)C(C)(C)[C@@H]5CC[C@]43C)[C@@H]2C1 [Mc, Momordin Ιc]

Source: paper PMC5312290, “Momordin Ic, a new natural SENP1 inhibitor, inhibits prostate cancer cell proliferation” (Oncotarget, 2016)
